Measured values reported in patent US20210139610A1, “COMPOSITIONS AND METHODS FOR MEDIATING EPS” (priority 2018, published 2021).
Entries after “also recorded” stand apart in the source; their conditions may differ.

What was measured:
preformed NTHI biofilms [1] = test: Disruption of pre-formed NTHI biofilms (treatment after initial growth; LIVE/DEAD, CLSM, COMSTAT); type: cell-based, Non-typeable Haemophilus influenzae; details: 1% P11
Experimental: (FIG. 18A) Biofilm growth was initiated then maintained for 24 hrs then treated for 16 hrs with 0 (SBHI Control), 0.1%, 1%, and 5% (w/v) of Phoshocellulose (P11). (FIG. 18B) Biofilm growth was initiated then maintained for 40 hrs in the presence of 0 (sBHI Control), 0.1%, 1%, and 5% (w/v) of (P11). Biofilms were washed with saline and stained with LIVE/DEAD® stain. Images were analyzed by COMSTAT to calculate average thickness and biomass. All images were captured with a 63× objective.
21:65-7. Pulmozyme® was added either at seeding (biofilm prevention) or to pre-formed biofilms (biofilm disruption) (FIG. 6). The resultant biofilms were stained with LIVE/DEAD® and evaluated using CLSM and COMSTAT analysis.
To determine anti-biofilm activity of cation exchange resins on preformed biofilms (i.e. ability to disrupt an extant biofilm), NTHI growth was initiated and maintained for 24 hrs, then treated for 16 hrs with 0 (sBHI Control), 0.1, 1, or 5% (w/v) of P11 phosphocellulose (FIG. 18A). To determine the anti-biofilm activity of cation exchange resins to prevent biofilm formation, NTHI growth was initiated and maintained in the presence of 0 (sBHI Control), 0.1, 1, and 5% w/v of P11 phosphocellulose (FIG. 18B) or 5% (w/v) heparin sepharose (FIG. 19). Biofilms were washed with saline and stained with LIVE/DEAD®, visualized with confocal scanning microscopy (CSLM) and analyzed by COMSTAT to determine average thickness and biomass.

[2] = system: Z-DNA and B-DNA in the NTHI biofilm extracellular matrix; test: Immunofluorescence CLSM for Z-DNA / B-DNA in NTHI biofilms; type: cell-based, Non-typeable Haemophilus influenzae; details: 24 h biofilm + 16 h with agent (1 mM CeCl3; 1 μM chloroquine)
Experimental: FIG. 31: DNase degrades B-DNA, but not Z-DNA, within the biofilm extracellular matrix. DNase (Pulmozyme; 5 units) was added at 24 h after biofilm seeding to in vitro pre-formed NTHI biofilms.
FIG. 37: HMGB1 destabilizes Z-DNA structures in the biofilm extracellular matrix. Non-typeable Haemophilus influenzae biofilms were grown in supplemented BHI media in 8 well chambered coverglass slides at 37° C. and 5% CO2. After 24 h, biofilms were treated as indicated above. After 40 h, biofilms were washed, probed with primary antibodies directed against Z-DNA (light gray dots), a fluorescent secondary antibody, stained with DAPI (gray regions), and visualized via fluorescence microscopy.
FIGS. 50A-50B: Equilibrium shift of B-DNA to Z-DNA conversion alters biofilm formation. NTHI biofilms formed for 24 h were incubated with cerium chloride (CeCl3) or chloroquine for an additional 16 h and were probed with naive or anti-Z-DNA (white) by immunofluorescence CLSM.
FIGS. 51A-51B: Equilibrium shift of B-DNA to Z-DNA conversion alters biofilm formation. NTHI biofilms formed for 24 h were incubated with cerium chloride (CeCl3) (FIG. 51A) or chloroquine (FIG. 51B) for an additional 16 h. Z-DNA was measured by IF and CLSM using anti-Z-DNA and cells were stained with the membrane stain FM4-64. Bars represent the SEM. Statistical significance compared to control was assessed by paired t-tests, *P<0.05, **P<0.01.

preformed NTHI biofilms [3] = test: Disruption of pre-formed NTHI biofilms (treatment after initial growth; LIVE/DEAD, CLSM, COMSTAT); type: cell-based, Non-typeable Haemophilus influenzae; details: 24 h biofilm + 16 h with CeCl3 or chloroquine
genomic DNA / poly(dGdC) = test: A260/295 absorbance ratio assay of B-DNA to Z-DNA conversion; type: biochemical
Experimental: In one aspect, the agents are administered in the absence of a DNAse. Left: Genomic DNA (2 μg/mL) was incubated with spermidine (spd:300 μM), HU (500 nM), a combination of both spd and HU for 2 h at 37° C. Incubation of gDNA with 3.6M NaCl was used as a positive Z-DNA control. Middle: gDNA (2 μg/mL) was incubated with increased concentrations of Cerium chloride (CeCl3) which is known to induce Z-DNA. Right: poly(dGdC) (1 μg) was incubated with either NaCl (3.6 M), chloroquine (100 μM), or a combination of both NaCl and chloroquine. […] The absorbance values at 260 nm and 295 nm were measured and the A260/295 ratio was calculated. A ratio >8.6 is indicative of B-DNA, while a value near 3.2 is indicative of Z-DNA.

[4] = system: Non-typeable Haemophilus influenzae biofilms; test: NTHI in vitro biofilm formation, additive present from seeding (LIVE/DEAD, CLSM, COMSTAT); type: cell-based; details: 1 mM exogenous spermidine plus DCHA 50 μM
Experimental: FIG. 14: Non-typeable Haemophilus influenzae biofilms were grown for 40 h in supplemented BHI medium containing additives as indicated below each bar in 8 well chambered coverglass slides at 37° C. and 5% CO2. Biofilms were washed, stained with LIVE/DEAD®, fixed, and imaged by CLSM. Biofilm parameters were quantified using COMSTAT software.
Dicyclohexylamine inhibits spermidine synthase via a competitive inhibition mechanism, i.e. through binding to the same site on the protein as the putrescine substrate. Applicants therefore hypothesized that dicyclohexylamine would inhibit NTHi biofilm development. […]

NTHI biofilms = test: Transwell assay: NTHI biofilm in basolateral chamber, P11 resin in apical chamber; type: cell-based, Non-typeable Haemophilus influenzae
Experimental: (FIG. 42A) NTHI biofilm growth was initiated at 37° C., 5% CO2 in the basolateral chamber of a transwell plate system whereas P11 resin was added to the apical chamber, and incubated for 16 h. (FIG. 42B) Biofilms were stained, fixed, visualized via CLSM, and analyzed by COMSTAT. […] (FIG. 42C) Spermidine (Spd, 300 μM) and HU (500 nM) were added at seeding.
To determine the effect of P11 sequestration of these molecules on bacterial biofilm formation, Applicants utilized a transwell system. NTHI growth was initiated in the basolateral chamber while P11 (1% w/v) was added to the apical chamber at seeding. At 16 h, the biofilms were washed and stained with LIVE/DEAD®, imaged using CLSM, and analyzed with COMSTAT. […] To determine whether P11 cation depletion included polyamines and/or DNABII proteins, NTHI growth was initiated in the basolateral chamber with the exogenous addition of 1 mM spermidine and 1 μM HU, while P11 was added at 1% w/v to the apical chamber.
To determine whether the decrease in biofilm formation was dependent on direct cellular contact, NTHI growth was initiated in the basal chamber of a transwell plate system that contained a 0.4 μm pore size within the membrane that separates the apical and basolateral chambers. This allows for the diffusion of small molecules e.g. proteins (DNABII), polyamines and divalent metal cations between the two chambers, but not bacterial cells. […] Biofilms were washed with saline and stained with LIVE/DEAD®, visualized with CSLM and analyzed by COMSTAT to determine average thickness and biomass.
To determine whether polyamines (spermidine) are depleted by P11 phosphocellulose without direct contact in the transwell system, NTHi growth was initiated in the basolateral chamber containing 0, 100, 500, or 1000 μM Spermidine, while 0 (sBHI control) or 1.5% (w/v) P11 phosphocellulose was added to the apical chamber and maintained for 16 hrs. Biofilms were washed with saline and stained with LIVE/DEAD®, visualized with CSLM and analyzed by COMSTAT to determine average thickness and biomass. […]

NTHI genomic DNA (gDNA) = test: Protection of genomic DNA from DNase digestion (agarose gel); type: biochemical, Non-typeable Haemophilus influenzae; details: DNase 0.5 units
Experimental: (FIG. 7C) Increasing levels of spermidine (Spd) and HU, separately or together, were incubated with genomic DNA (2 μg/ml) for 1.5 h at 37° C., followed by treatment with Pulmozyme® for 20 min. DNA degradation was assayed using agarose gel electrophoresis. […] (FIG. 7D) Spd (300 μM) and HU (1 μM) were incubated with genomic DNA (2 μg/ml) for 40 h, followed by Pulmozyme® treatment for 20 min.
To test synergism in vitro, Applicants incubated NTHI genomic DNA (gDNA) with spermidine (10, 20, 50, or 100 μM) in the presence or absence of HU (50 or 100 nM) and DNase (0.5 units). Degradation was assessed by agarose gel electrophoresis and UV illumination.

[5] = system: NTHI biofilms in the middle ear; test: Chinchilla model of otitis media due to NTHI, middle ear biofilm scoring; type: in vivo; details: 5 μg to middle ears at 4 and 5 days post infection, scored 24 h later
Experimental: FIGS. 39A-39B: HMGB1 promotes biofilm resolution in an experimental model (chinchilla host) of OM. Diluent or 5 μg rHMGB1 or mHMGB1 were delivered directly to middle ears of chinchillas at 4 and 5 days post infection with NTHI. Animals were sacrificed 24 h later, and their middle ears were imaged (FIG. 39A) and blindly scored (FIG. 39B) based on the criteria described in the bottom of (FIG. 39A). Bars represent SEM. ***P<0.001.

genomic DNA = test: Spermidine sensitivity of nucleases on genomic DNA; type: biochemical; details: Spermidine titrated from 10 μM-10 mM

For [Cl-].[Cl-].[Mg+2] [MgCl2], the “compensation of phosphocellulose effect on NTHI biofilm” value (“compensation” for short) (preformed NTHI biofilms [1]; MgCl2 0-10 mM for 16 hrs) was “can partially compensate for the disruptive effect of phosphocellulose; also recorded: rescues the negative effect of phosphocellulose on NTHI biofilm stability”.

With [Cl][Ce]([Cl])[Cl] [CeCl3, cerium chloride] the “Z-DNA abundance in NTHI biofilm” value [2] was “increased Z-DNA abundance”, the “NTHI biofilm formation / development” value (preformed NTHI biofilms [3]) was “increased Z-DNA and biofilm formation” and the “induction of Z-DNA in genomic DNA” value (genomic DNA / poly(dGdC); gDNA 2 μg/mL, spd 300 μM + HU 500 nM, 2 h at 37° C., or increased concentrations of CeCl3) was “synergized to induce Z-DNA”.

For NCCCCNCCCN [spermidine], the “compensation” value (preformed NTHI biofilms [1]; spermidine 0-5 mM for 16 hrs) was “can partially compensate for the negative effect of phosphocellulose”, the “compensation” value (preformed NTHI biofilms [1]; spermidine 0-5 mM for 16 hrs, listed as Spermidine) was “rescues the negative effect of phosphocellulose on NTHI biofilm stability” and the “rescue of biofilm formation in dicyclohexylamine-treated NTHI biofilms” value [4] was “defects in biofilm biogenesis could be compensated for; also recorded: restored normal biofilm thickness, biomass, and roughness; also recorded: able to rescue biofilm growth”. The “rescue of biofilm formation in dicyclohexylamine-treated NTHI biofilms” value ([4]; listed as Spd) was “restored biofilm formation”, the “restoration of P11-depleted biofilm by HU or spermidine individually” value (NTHI biofilms; 1% P11, 1 mM spermidine or 1 μM HU, data not shown) was “insufficient” and the “restoration of cation-depleted biofilms by spermidine alone” value (NTHI biofilms; 1.5% P11, 100, 500 or 1000 μM spermidine, 16 hrs) was “alone can restore cation-depleted biofilms in a dose-dependent manner; also recorded: reduces the cation depletion effects of P11 phosphocellulose”. The “concentration protecting gDNA from DNase individually” value (NTHI genomic DNA (gDNA)) was greater than 100 µM and the “concentration inhibiting gDNA digestion synergistically when admixed” value (NTHI genomic DNA (gDNA); admixed with HU) was less than 50 µM.

For CCN(CC)CCCC(C)Nc1ccnc2cc(Cl)ccc12 (centres unmarked) [chloroquine], the “Z-DNA abundance in NTHI biofilm” value [2] was “decreased Z-DNA abundance; also recorded: reduced Z-DNA”, the “NTHI biofilm formation / development” value (preformed NTHI biofilms [3]) was “reduced Z-DNA and biofilm development” and the “B-DNA to Z-DNA transition of poly(dGdC)” value (genomic DNA / poly(dGdC); chloroquine 100 μM with NaCl 3.6 M) was “prevents the transition of B-DNA to Z-DNA”.

B1: non-inflammatory HMGB1 variant: mHMGB1, a C45 S non-inflammatory variant (protein, UniProt P09429 1-215, looked up, variant C45S)
High mobility group protein B1: MGKGDPKKPRGKMSSYAFFVQTCREEHKKKHPDASVNFSEFSKKSSERWKTMSAKEKGKFEDMAKADKARYEREMKTYIPPKGETKKKFKDPNAPKRPPSAFFLFCSEYRPKIKGEHPGLSIGDVAKKLGEMWNNTAADDKQPYEKKAAKLKEKYEKDIAAYRAKGKPDAAKKGVVKAEKSKKKKEEEEDEEDEEDEEEEEDEEDEDEEEDDDDE
With B1 the “resolution of middle ear NTHI biofilms” value [5] was “efficient resolution of adherent biofilms”.

B2: NucB: nuclease that prevents biofilm formation (Table 1) (protein, UniProt P42983 29-136, looked up)
Sporulation-specific …: SYDKVLYFPLSRYPETGSHIRDAIAEGHPDICTIDRDGADKRREESLKGIPTKPGYDRDEWPMAVCEEGGAGADVRYVTPSDNRGAGSWVGNQMSSYPDGTRVLFIVQ
For B2, the “Spd inhibition: spermidine concentration where nuclease was reduced to <10% activity on genomic DNA” value (genomic DNA) was greater than 10 mM.
